# Read-outs that look alike come from different tables or passages of the source.
# Key:
# Type in all cases: cell-based
# [1] = test system: human umbilical vein endothelial cells (HUVEC); test: In vitro neovascular inhibition evaluation
# Experimental: Anti-angiogenesis effects of ethoxy combretastatins were assessed in human umbilical vein endothelial cells (HUVEC) using the same method described in Example 10.
# [2] = test system: Bel-7402 (human liver cancer cell); test: In vitro anti-tumor activity evaluation (SRB/MTT, 72 hours); details: read-out: IC50 Liver cancer Bel-7402
# Experimental: (§1) The tumor cell cultured in vitro was treated with ethoxy combretastatin derivatives for 72 hours, and the MTT and SRB assays was used to evaluate its inhibition of tumor proliferation.
# (§2) Cell Line: H460 (human lung cancer cell), SGC7901 (human stomach cancer cell), HT-29 (human colon cancer cell), Bel-7402 (human liver cancer cell).
# (§3) Experimental Design: The cells were incubated with the compounds in various concentrations (100, 10, 1, 0.1, 0.01, 0.001 μM) for 72 hours. SRB assay was used to evaluate the inhibition effect of the compounds on cell proliferation. The inhibition rate was calculated, and IC50 was calculated by using Logit model as a function of the inhibition rate. And the anti-tumor activity of the compounds in vitro was compared.
# (§4) The Inhibition Rate was Expressed Using the Following Equation: Inhibition rate (%)=[(average OD value of control group−average OD value of experimental group)/average OD value of control group]×100%.
# [3] = test system: SGC7901 (human stomach cancer cell); test: as above; details: read-out: IC50 Stomach cancer SGC-7901
# Experimental: as §1, §2, §3, §4
# [4] = test system: H460 (human lung cancer cell); test: as above; details: read-out: IC50 Non-small cell lung cancer H460
# Experimental: as §1, §2, §3, §4
# [5] = test system: HT-29 (human colon cancer cell); test: as above; details: read-out: IC50 Colon cancer HT29
# Experimental: as §1, §2, §3, §4
# [6] = Homo sapiens, read-out: IC50 HUVEC
SMILES,"IC50 [1, 6]","IC50 ([2]; Homo sapiens, Bel-7402, 72 h)","IC50 ([3]; Homo sapiens, SGC-7901, 72 h)","IC50 ([4]; Homo sapiens, NCI-H460, 72 h)","IC50 ([5]; Homo sapiens, HT-29, 72 h)","IC50 ([1]; same method as Example 10, read-out: IC50 HUVEC)","IC50 ([2]; Bel-7402 cells, 72 hours incubation)","IC50 ([3]; SGC-7901 cells, 72 hours incubation)","IC50 ([4]; H460 cells, 72 hours incubation)","IC50 ([5]; HT29 cells, 72 hours incubation)"
"CCOc1ccc(/C=C\c2cc(OC)c(OC)c(OC)c2)cc1O [Ethoxy combretastatin, (Z)-1-(3,4,5-trimethoxy)phenyl-2-(3′-hydroxy-4′-ethoxy) Phenylethylene]",2200 nM,620 nM,8 nM,11 nM,47 nM,,,,,
"COc1ccc(/C=C\c2cc(OC)c(OC)c(OC)c2)cc1O [CA-4, (Z)-1-(3,4,5-trimethoxy)phenyl-2-(3′-hydroxy-4′-methoxy)phenylethylene]",,,,,,3700 nM,750 nM,10 nM,27 nM,2380 nM
"CCOc1ccc(/C=C\c2cc(OC)c(OC)c(OC)c2)cc1N [3′-Amino ethoxy combretastatin, (Z)-1-(3,4,5-trimethoxy)phenyl-2-(3′-amino-4′-ethoxy) Phenylethylene]",1500 nM,330 nM,6 nM,8 nM,25 nM,,,,,

# — US7838706B2, “Preparation and the use of ethoxy combretastatins and their prodrugs” (priority 2006, dated 2010)
